Experimental data reported in publication PMC7827406, “Structure–Activity Relationship (SAR) Study of Spautin-1 to Entail the Discovery of Novel NEK4 Inhibitors” (International Journal of Molecular Sciences, 2021).
Like-named read-outs stand apart in the source and are kept apart here.

Columns and labels:
Assay in all cases: biochemical
Design in all cases: Eurofins KinaseProfiler full panel at Km ATP, residual kinase activity (%) relative to DMSO
Lyn(h) = Lyn(h) (Homo sapiens, UniProt P07948)
Procedure, shortened: (§1)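 Two 10 µM single-concentration screens were run: a competition-binding screen, in which DNA-tagged kinase bound to immobilized ligands was quantified by qPCR, and a radiometric activity panel at Km ATP. Each is expressed as residual kinase activity (%).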

IKKε(h) = biological target: T1, IKKε(h) (Homo sapiens, UniProt Q14164)
T1 construct: gene IKBKE
T1 sequence (Q14164 1-716): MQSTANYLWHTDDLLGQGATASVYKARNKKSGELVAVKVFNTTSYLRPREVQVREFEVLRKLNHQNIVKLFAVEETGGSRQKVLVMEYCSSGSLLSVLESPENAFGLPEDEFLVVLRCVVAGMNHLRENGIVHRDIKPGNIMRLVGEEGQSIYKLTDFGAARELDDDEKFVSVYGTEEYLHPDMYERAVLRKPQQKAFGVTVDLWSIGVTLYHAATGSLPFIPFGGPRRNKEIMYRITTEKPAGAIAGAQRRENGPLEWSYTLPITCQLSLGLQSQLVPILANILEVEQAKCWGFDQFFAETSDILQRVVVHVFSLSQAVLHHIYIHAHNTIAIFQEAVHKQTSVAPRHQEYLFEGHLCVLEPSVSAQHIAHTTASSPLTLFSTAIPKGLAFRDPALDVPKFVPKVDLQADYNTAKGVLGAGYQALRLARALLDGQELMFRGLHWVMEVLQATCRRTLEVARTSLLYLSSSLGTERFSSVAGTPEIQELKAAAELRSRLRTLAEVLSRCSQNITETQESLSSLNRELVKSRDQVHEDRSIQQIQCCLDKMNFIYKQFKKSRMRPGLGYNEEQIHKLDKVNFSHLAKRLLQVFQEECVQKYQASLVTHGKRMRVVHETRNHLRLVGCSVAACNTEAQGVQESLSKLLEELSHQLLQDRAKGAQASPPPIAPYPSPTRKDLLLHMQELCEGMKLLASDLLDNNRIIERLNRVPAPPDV
Procedure, shortened: as §1

PIP5K1a(h) = PIP5K1a(h) (Homo sapiens, UniProt Q99755)
Procedure, shortened: as §1

MLK3(h) = biological target: T2, MLK3(h) (Homo sapiens, UniProt Q16584)
T2 construct: gene MAP3K11
Procedure, shortened: as §1

PKCβII(h) = biological target: T3, PKCβII(h) (Homo sapiens, UniProt P05771)
T3 construct: gene PRKCB; isoform beta II
Procedure, shortened: as §1

PrKX(h) = biological target: T4, PrKX(h) (Homo sapiens, UniProt P51817)
T4 sequence (P51817 1-358): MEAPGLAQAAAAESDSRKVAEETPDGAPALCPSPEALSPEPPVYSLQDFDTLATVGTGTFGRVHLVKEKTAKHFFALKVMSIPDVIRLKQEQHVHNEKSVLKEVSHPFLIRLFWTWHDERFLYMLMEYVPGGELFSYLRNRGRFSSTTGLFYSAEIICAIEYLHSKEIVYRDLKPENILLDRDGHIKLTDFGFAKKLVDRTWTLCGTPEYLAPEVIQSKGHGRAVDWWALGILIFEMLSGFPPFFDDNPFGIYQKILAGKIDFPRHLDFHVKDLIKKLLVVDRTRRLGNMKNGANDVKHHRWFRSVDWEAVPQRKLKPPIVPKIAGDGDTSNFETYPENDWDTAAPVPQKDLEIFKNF
Procedure, shortened: as §1

JNK2α2(h) = biological target: T5, JNK2α2(h) (Homo sapiens, UniProt P45984)
T5 construct: gene MAPK9; isoform alpha2
Procedure, shortened: as §1

[1] = read-out: Residual activity (%) 5at
[2] = read-out: Residual activity (%) 5as
[3] = read-out: Residual activity (%) 5ay
[4] = read-out: Residual activity (%) Spautin-1 5aa

Lyn(h), sequence (P07948 whole entry): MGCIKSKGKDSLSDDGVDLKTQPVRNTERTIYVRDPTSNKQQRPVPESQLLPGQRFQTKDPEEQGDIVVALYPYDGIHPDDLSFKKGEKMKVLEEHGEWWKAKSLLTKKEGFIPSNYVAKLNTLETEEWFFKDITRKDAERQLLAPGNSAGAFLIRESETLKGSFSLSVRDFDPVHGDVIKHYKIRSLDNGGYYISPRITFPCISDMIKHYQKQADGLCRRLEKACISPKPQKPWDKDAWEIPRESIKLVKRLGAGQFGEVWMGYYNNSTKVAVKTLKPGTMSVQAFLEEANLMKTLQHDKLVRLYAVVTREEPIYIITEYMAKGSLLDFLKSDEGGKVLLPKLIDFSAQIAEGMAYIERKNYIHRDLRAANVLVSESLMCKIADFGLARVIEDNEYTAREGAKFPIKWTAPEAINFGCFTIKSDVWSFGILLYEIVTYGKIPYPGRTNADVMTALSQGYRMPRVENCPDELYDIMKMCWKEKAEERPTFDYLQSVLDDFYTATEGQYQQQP
T5 sequence (P45984 whole entry, canonical isoform): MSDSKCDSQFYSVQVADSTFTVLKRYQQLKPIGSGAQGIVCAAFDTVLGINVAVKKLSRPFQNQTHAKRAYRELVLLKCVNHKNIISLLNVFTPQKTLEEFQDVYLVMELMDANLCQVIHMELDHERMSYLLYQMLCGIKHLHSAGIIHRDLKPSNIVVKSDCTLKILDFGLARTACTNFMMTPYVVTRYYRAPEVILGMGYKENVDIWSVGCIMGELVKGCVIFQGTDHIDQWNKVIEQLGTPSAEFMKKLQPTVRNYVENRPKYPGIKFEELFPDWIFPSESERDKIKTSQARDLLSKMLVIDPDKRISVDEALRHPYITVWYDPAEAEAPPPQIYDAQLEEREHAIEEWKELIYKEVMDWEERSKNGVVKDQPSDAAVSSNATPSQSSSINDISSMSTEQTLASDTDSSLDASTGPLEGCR
T2 sequence (Q16584 whole entry): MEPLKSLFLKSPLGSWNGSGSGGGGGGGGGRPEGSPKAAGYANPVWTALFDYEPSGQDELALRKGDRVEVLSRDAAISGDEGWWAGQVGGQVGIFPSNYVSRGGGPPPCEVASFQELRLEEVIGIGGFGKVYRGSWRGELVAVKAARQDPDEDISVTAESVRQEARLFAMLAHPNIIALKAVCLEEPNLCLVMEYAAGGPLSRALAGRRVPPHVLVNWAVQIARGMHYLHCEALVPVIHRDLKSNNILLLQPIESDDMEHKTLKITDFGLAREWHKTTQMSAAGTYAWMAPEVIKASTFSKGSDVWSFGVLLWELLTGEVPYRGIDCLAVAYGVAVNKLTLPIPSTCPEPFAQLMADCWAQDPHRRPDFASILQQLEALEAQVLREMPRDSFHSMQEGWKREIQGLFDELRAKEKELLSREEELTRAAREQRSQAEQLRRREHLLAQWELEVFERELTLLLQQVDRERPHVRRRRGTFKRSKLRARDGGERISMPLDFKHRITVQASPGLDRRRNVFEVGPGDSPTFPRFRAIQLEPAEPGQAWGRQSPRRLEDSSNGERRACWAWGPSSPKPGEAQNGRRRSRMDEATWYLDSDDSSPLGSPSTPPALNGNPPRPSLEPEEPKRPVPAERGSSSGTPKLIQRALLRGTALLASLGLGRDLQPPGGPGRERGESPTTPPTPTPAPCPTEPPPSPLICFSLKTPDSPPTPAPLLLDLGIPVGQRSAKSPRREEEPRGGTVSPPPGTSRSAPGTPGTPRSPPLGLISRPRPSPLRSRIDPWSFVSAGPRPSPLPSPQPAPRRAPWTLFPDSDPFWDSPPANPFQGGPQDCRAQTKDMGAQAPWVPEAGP
T3 sequence (P05771 whole entry, canonical isoform): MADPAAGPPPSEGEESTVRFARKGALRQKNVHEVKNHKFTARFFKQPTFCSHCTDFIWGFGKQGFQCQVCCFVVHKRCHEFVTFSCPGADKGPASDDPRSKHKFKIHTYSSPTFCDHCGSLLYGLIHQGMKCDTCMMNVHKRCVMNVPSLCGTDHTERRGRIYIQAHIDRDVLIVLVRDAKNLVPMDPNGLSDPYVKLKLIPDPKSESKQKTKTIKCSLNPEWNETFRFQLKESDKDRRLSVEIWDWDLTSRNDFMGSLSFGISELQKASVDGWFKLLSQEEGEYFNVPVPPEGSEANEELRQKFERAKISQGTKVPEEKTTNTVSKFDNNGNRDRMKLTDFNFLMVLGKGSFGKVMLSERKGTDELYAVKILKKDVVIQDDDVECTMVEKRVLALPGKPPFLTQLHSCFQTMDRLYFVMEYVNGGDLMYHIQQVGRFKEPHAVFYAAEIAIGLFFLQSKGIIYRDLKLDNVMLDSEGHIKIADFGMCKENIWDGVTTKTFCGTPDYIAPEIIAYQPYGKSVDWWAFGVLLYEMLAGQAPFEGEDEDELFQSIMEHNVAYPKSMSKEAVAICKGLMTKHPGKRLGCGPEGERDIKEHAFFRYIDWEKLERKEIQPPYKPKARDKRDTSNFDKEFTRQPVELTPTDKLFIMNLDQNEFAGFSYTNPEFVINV
PIP5K1a(h), sequence (Q99755 whole entry): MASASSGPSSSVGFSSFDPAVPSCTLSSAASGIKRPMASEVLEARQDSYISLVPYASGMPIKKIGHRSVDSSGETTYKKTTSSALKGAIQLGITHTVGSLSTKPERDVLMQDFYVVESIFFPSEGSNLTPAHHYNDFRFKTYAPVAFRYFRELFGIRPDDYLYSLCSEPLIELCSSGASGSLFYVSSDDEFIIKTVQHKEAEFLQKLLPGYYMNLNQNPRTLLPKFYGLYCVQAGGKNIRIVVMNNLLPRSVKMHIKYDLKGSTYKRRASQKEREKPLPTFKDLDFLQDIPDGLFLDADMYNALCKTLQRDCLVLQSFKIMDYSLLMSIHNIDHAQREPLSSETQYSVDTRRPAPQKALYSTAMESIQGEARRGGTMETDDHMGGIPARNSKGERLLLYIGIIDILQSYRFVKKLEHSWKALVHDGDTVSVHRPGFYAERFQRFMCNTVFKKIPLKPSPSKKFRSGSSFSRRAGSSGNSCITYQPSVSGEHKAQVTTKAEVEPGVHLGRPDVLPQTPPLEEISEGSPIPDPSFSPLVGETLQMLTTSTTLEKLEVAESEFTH

Fc1ccc2ncnc(NCCc3ccc(Cl)cc3)c2c1 [5at, N-[2-(4-Chlorophenyl)Ethyl]-6-Fluoro-4-Quinazolinamine]
remaining activity at 10 µM (Lyn(h); [1]): 91%
remaining activity at 10 µM (IKKε(h); [1]): 79%
remaining activity at 10 µM (PIP5K1a(h); [1]): 104%
remaining activity at 10 µM (MLK3(h); [1]): 114%
remaining activity at 10 µM (PKCβII(h); [1]): 104%
remaining activity at 10 µM (PrKX(h); [1]): 112%
remaining activity at 10 µM (JNK2α2(h); [1]): 88%

Fc1ccc(CCNc2ncnc3ccc(F)cc23)cc1 [5as, 6-Fluoro-N-[2-(4-Fluorophenyl)Ethyl]-4-Quinazolinamine]
remaining activity at 10 µM (Lyn(h); [2]): 89%
remaining activity at 10 µM (IKKε(h); [2]): 72%
remaining activity at 10 µM (PIP5K1a(h); [2]): 103%
remaining activity at 10 µM (MLK3(h); [2]): 99%
remaining activity at 10 µM (PKCβII(h); [2]): 100%
remaining activity at 10 µM (PrKX(h); [2]): 97%
remaining activity at 10 µM (JNK2α2(h); [2]): 78%

COc1ccc2ncnc(Nc3cccc(F)c3)c2c1 [5ay, N-(3-Fluorophenyl)-6-Methoxy-4-Quinazolinamine]
remaining activity at 10 µM (Lyn(h); [3]): 80%
remaining activity at 10 µM (IKKε(h); [3]): 67%
remaining activity at 10 µM (PIP5K1a(h); [3]): 101%
remaining activity at 10 µM (MLK3(h); [3]): 97%
remaining activity at 10 µM (PKCβII(h); [3]): 110%
remaining activity at 10 µM (PrKX(h); [3]): 93%
remaining activity at 10 µM (JNK2α2(h); [3]): 82%

Fc1ccc(CNc2ncnc3ccc(F)cc23)cc1 [5aa, 6-Fluoro-N-(4-fluorobenzyl)-4-Quinazolinamine]
remaining activity at 10 µM (Lyn(h); [4]): 103%
remaining activity at 10 µM (IKKε(h); [4]): 64%
remaining activity at 10 µM (PIP5K1a(h); [4]): 104%
remaining activity at 10 µM (MLK3(h); [4]): 99%
remaining activity at 10 µM (PKCβII(h); [4]): 107%
remaining activity at 10 µM (PrKX(h); [4]): 97%
remaining activity at 10 µM (JNK2α2(h); [4]): 89%
